Literature values in publication PMC4085797, “Synthetic Inositol Phosphate Analogs Reveal that PPIP5K2 Has a Surface-Mounted Substrate Capture Site that Is a Target for Drug Discovery” (Chemistry & Biology, 2014).
Residue numbers refer to the chain shown, from its start.

Columns and labels:
[1] = molecular target: T1, PPIP5K2^KD (kinase domain of human PPIP5K2) (Homo sapiens, UniProt O43314); design: method as in Weaver et al., 2013; details: 25 μM; ref Weaver et al., 2013; cited from earlier work
T1 construct: The kinase domain of human PPIP5K2 (PPIP5K2^KD; residues 1–366); made in house
T1 sequence (O43314 1-366): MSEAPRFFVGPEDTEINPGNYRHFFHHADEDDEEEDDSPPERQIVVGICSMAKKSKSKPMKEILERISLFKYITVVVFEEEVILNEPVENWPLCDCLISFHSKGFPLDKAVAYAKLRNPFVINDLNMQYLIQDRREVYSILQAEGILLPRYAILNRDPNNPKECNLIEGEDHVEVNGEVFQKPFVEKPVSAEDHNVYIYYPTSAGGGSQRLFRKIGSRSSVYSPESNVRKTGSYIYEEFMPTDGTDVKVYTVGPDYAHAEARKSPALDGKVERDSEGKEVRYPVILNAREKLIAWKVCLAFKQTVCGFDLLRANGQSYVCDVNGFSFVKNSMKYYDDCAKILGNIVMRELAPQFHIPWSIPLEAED

human PPIP5K2^KD = molecular target: T2, human PPIP5K2^KD (Homo sapiens, UniProt O43314); design: method as in Weaver et al., 2013; details: ref Weaver et al., 2013; cited from earlier work
T2 construct: The kinase domain of human PPIP5K2 (PPIP5K2^KD; residues 1–366); made in house
T2 sequence (O43314 1-366): T1 sequence (O43314 1-366)

human IP6K2 = molecular target: T3, human IP6K2 (Homo sapiens, UniProt Q9UHH9); design: method as in Saiardi et al., 2000; details: ref Saiardi et al., 2000; cited from earlier work
T3 construct: Full-length human IP6K2, the kinase domain of human PPIP5K2; made in house
T3 sequence (Q9UHH9 1-426): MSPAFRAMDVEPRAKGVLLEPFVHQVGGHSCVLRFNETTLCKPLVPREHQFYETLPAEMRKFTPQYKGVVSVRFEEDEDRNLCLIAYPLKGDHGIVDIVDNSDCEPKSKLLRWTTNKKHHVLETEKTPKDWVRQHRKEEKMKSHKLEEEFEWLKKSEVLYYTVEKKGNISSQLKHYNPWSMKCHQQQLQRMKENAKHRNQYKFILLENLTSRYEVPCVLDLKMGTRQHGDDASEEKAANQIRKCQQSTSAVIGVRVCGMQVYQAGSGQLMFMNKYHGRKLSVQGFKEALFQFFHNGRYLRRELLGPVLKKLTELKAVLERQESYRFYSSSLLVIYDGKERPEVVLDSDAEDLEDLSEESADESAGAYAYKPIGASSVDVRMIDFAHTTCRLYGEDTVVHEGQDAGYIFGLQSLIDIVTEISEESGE

PPIP5K2^KD R213A mutant = molecular target: T4, PPIP5K2^KD R213A mutant (Homo sapiens, UniProt O43314, R213A); design: method as in Weaver et al., 2013; details: R213A mutation; ref Weaver et al., 2013; cited from earlier work
T4 construct: The kinase domain of human PPIP5K2 (PPIP5K2^KD; residues 1–366); made in house
T4 sequence (O43314 1-366 R213A): T1 sequence (O43314 1-366) with R213A

O=P(O)(O)O[C@H]1[C@H](OP(=O)(O)O)[C@@H](OP(=O)(O)O)[C@H](OP(=O)(O)O)[C@@H](OP(=O)(O)O)[C@H]1OP(=O)(O)O [InsP6]
activation of substrate-stimulated ATPase activity [1]: 2- to 3 fold | affinity for InsP6 phosphorylation by PPIP5K2^KD (human PPIP5K2^KD): 390 nM | affinity of IP6K2 for InsP6 (human IP6K2): 430 nM | InsP6-stimulated ATPase activity (in words) (PPIP5K2^KD R213A mutant): abolished
